Assay [1] concerns the target T1, TLR2 (Mus musculus, UniProt Q9QUN7).
T1 construct: endogenous in cells; host or cells: RAW 264.7
The experiment in a line: TLR2 functional assay, cytokine release from RAW 264.7 mouse macrophage cell line. It counts as cell-based. The conditions noted are these: average of all runs. Here is the method: Cells of the immune system respond to TLR agonists in part by secreting cytokines. Functional assays for TLR2 agonists measure cytokine release from purified immune cells or immortalized cell lines derived from immune cells. Cytokine release is measured by standard ELISA approaches or multiplexed analysis using the Meso Scale Discovery (MSD) platform.
Purified primary human peripheral blood mononuclear cells or RAW 264.7 mouse macrophage cell line cells are plated at approximately 40,000 cells per well. Cells are treated with agonist compounds and assays 6-24 hours post-treatment for cytokines released into the cell culture media.
Following assay measurements utilizing either HEK-Blue detection or cytokine release, all data is analyzed with the GraphPad Prism8 statistical package to determine EC50, binding and activity metrics for the TLR2 modulators.
Numerous cell lines derived from various cell types can respond to TLR2 agonists with stereotyped cytokine and chemokine secretion. In particular, cell lines derived from macrophages respond robustly to TLR2 agonists by secreting a wide array of cytokines, including (but not limited to) TNF-alpha, IL-1, IL-10 and IL-12. The human monocytic cell line THP-1, the mouse macrophage line RAW-264.7, and the rat macrophage line NR8383 were used. For each assay, the respective cell lines were plated into 96-well plates overnight and then treated the following day with various TLR2-engaging compounds at varying concentrations. The next day, supernatants were collected and assayed by multiplex immunodetection for cytokines released (MSD detection kits for respective species).
Data provided in Table 5 is generated using protocols described in Example 45 and 46.

Assay [2] concerns the target TLR2 (Homo sapiens, UniProt O60603). The experiment in a line: TLR2 agonist screening assay, HEK-Blue TLR2 reporter cell line (NF-kB-driven SEAP, absorbance at 600 nm). It counts as cell-based. More on the design: host or cells: HEK-293 (HEK-Blue TLR2 reporter cell line). The conditions noted are these: HEK-Blue TLR2 reporter cells, agonist mode; average of all runs (Table 4). Put shortly:
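Read-out: SEAP colour change, A600, after overnight agonist exposure. Cells: HEK-293 overexpressing TLR2, NF-kB-SEAP reporter, ~40,000/well, plated 16-24 h prior.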

Some results are limits rather than exact numbers.

Chain of TLR2 (Homo sapiens, UniProt O60603) (O60603 21-784): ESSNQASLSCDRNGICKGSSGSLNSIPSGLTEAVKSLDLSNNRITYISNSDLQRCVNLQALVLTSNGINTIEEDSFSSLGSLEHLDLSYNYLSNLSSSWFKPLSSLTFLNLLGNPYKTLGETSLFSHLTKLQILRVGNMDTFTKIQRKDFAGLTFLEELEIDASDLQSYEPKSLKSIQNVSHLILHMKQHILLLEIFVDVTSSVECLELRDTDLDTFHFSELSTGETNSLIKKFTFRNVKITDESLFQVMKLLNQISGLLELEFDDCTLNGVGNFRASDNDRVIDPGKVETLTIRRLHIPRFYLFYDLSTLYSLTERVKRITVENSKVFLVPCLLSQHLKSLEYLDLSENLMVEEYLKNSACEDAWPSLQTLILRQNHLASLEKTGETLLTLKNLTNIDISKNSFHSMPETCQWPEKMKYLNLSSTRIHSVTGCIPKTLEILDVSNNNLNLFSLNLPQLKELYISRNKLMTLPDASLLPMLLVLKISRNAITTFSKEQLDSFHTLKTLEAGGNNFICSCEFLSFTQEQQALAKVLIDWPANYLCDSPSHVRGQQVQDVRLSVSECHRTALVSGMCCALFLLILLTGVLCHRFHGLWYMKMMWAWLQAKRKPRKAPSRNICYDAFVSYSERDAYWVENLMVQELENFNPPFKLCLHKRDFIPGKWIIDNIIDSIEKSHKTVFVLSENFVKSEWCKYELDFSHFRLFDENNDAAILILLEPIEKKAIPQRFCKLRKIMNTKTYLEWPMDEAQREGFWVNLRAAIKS
T1 sequence (Q9QUN7 25-784): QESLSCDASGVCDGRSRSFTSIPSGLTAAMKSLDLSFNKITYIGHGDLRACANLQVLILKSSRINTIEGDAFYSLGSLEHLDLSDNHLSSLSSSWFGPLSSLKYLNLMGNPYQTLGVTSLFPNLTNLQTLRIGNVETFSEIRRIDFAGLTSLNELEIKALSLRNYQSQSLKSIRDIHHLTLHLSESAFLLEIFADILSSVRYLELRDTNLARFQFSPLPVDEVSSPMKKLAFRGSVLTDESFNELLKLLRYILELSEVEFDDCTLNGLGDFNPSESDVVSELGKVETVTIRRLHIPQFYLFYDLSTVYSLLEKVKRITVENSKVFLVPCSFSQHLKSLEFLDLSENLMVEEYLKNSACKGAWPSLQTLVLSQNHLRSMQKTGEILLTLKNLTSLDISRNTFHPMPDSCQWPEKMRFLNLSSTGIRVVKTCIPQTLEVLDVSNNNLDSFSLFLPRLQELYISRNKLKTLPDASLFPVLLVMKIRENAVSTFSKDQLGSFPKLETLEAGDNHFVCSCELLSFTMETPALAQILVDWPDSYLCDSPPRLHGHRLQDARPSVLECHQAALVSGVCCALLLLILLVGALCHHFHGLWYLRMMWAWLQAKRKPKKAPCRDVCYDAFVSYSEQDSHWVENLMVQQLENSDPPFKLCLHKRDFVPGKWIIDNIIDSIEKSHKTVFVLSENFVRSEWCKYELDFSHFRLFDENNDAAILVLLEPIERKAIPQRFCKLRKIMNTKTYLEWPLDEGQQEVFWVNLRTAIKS

For `CCCCCCCCCCCCCNC(=O)N[C@@H](CNC(=O)c1ccc(C(=O)N2C[C@@H](C(=O)N[C@H]3C[C@@H]3c3ccccc3)[C@H](C(=O)N[C@H]3C[C@@H]3c3ccccc3)C2)cc1)COC` [Compound 198, (3S,4S)-1-(4-(((S)-3-methoxy-2-(3-tridecylureido)propyl)carbamoyl)benzoyl)-N3,N4-bis((1S,2R)-2-phenylcyclopropyl)pyrrolidine-3,4-dicarboxamide], the EC50 on TLR2 [1] and at TLR2 [2] was over 1 µM each time.
`CCCCCCCCCCCNC(=O)N[C@H]1CN(C(=O)c2ccc(C(=O)N3C[C@@H](C(=O)N[C@H]4C[C@@H]4c4ccccc4)[C@H](C(=O)N[C@H]4C[C@@H]4c4ccccc4)C3)cc2)C[C@@H]1OC` [Compound 199, (3S,4S)-1-(4-((3S,4S)-3-methoxy-4-(3-undecylureido)pyrrolidine-1-carbonyl)benzoyl)-N3,N4-bis((1S,2R)-2-phenylcyclopropyl)pyrrolidine-3,4-dicarboxamide]: the EC50 is over 1 µM at TLR2 [1] and 0.0001 to 0.05 µM on TLR2 [2].
In the case of `CCCCCCCCCCCCNC(=O)N[C@@H]1CCCN(C(=O)c2ccc(C(=O)N3C[C@@H](C(=O)N[C@H]4C[C@@H]4c4ccccc4)[C@H](C(=O)N[C@H]4C[C@@H]4c4ccccc4)C3)cc2)C1` [Compound 204, (3S,4S)-1-(4-((R)-3-(3-dodecylureido)piperidine-1-carbonyl)benzoyl)-N3,N4-bis((1S,2R)-2-phenylcyclopropyl)pyrrolidine-3,4-dicarboxamide], the EC50 at TLR2 [1] was over 1 µM; at TLR2 [2], 0.0001 to 0.05 µM.
The corresponding values for `CCCCCCCCCCCCCNC(=O)N[C@@H]1CCCN(C(=O)c2ccc(C(=O)N3C[C@@H](C(=O)N[C@H]4C[C@@H]4c4ccccc4)[C@H](C(=O)N[C@H]4C[C@@H]4c4ccccc4)C3)cc2)C1` [Compound 205, (3S,4S)—N3,N4-bis((1S,2R)-2-phenylcyclopropyl)-1-(4-((R)-3-(3-tridecylureido)piperidine-1-carbonyl)benzoyl)pyrrolidine-3,4-dicarboxamide] are over 1 µM and 0.0001 to 0.05 µM.
The like results for `CCCCCCCCCCCCCCNC(=O)N[C@@H]1CCCN(C(=O)c2ccc(C(=O)N3C[C@@H](C(=O)N[C@H]4C[C@@H]4c4ccccc4)[C@H](C(=O)N[C@H]4C[C@@H]4c4ccccc4)C3)cc2)C1` [Compound 206, (3S,4S)—N3,N4-bis((1S,2R)-2-phenylcyclopropyl)-1-(4-((R)-3-(3-tetradecylureido)piperidine-1-carbonyl)benzoyl)pyrrolidine-3,4-dicarboxamide] were, in that order, over 1 µM and 0.0001 to 0.05 µM.
Consider `CCCCCCCCCCCCCCC(=O)N[C@@H]1CN(C(=O)c2ccc(C(=O)N3C[C@@H](C(=O)N[C@H]4C[C@@H]4c4ccccc4)[C@H](C(=O)N[C@H]4C[C@@H]4c4ccccc4)C3)cc2)C[C@@H]1OC` [Compound 209, (3S,4S)-1-(4-((3S,4R)-3-methoxy-4-pentadecanamidopyrrolidine-1-carbonyl)benzoyl)-N3,N4-bis((1S,2R)-2-phenylcyclopropyl)pyrrolidine-3,4-dicarboxamide], for which the EC50 on TLR2 [1] was over 1 µM; on TLR2 [2] it was 0.0001 to 0.05 µM.
The like results for `CCCCCCCCCCCCCNC(=O)N[C@H]1CN(C(=O)c2ccc(C(=O)N3C[C@@H](C(=O)N[C@H]4C[C@@H]4c4ccccc4)[C@H](C(=O)N[C@H]4C[C@@H]4c4ccccc4)C3)cc2)C[C@H]1OC` [Compound 210, (3S,4S)-1-(4-((3R,4S)-3-methoxy-4-(3-tridecylureido)pyrrolidine-1-carbonyl)benzoyl)-N3,N4-bis((1S,2R)-2-phenylcyclopropyl)pyrrolidine-3,4-dicarboxamide] were, in that order, over 1 µM and 0.0001 to 0.05 µM.
The corresponding values for `CCCCCCCCNC(=O)N[C@@H](CNC(=O)c1ccc(C(=O)N2C[C@@H](C(=O)N[C@H]3C[C@@H]3c3ccccc3)[C@H](C(=O)N[C@H]3C[C@@H]3c3ccccc3)C2)cc1)C(=O)NCCCCCC` [Compound 211, (3S,4S)-1-(4-(((S)-3-(hexylamino)-2-(3-octylureido)-3-oxopropyl)carbamoyl)benzoyl)-N3,N4-bis((1S,2R)-2-phenylcyclopropyl)pyrrolidine-3,4-dicarboxamide] are over 1 µM and 0.0001 to 0.05 µM.
Consider `CCCCCCCCC(=O)N[C@@H](Cn1cc(-c2ccc(C(=O)N3C[C@@H](C(=O)N[C@H]4C[C@@H]4c4ccccc4)[C@H](C(=O)N[C@H]4C[C@@H]4c4ccccc4)C3)cc2)nn1)C(=O)NCCCCCC` [Compound 212, (3S,4S)-1-(4-(1-((S)-3-(hexylamino)-2-nonanamido-3-oxopropyl)-1H-1,2,3-triazol-4-yl)benzoyl)-N3,N4-bis ((1S,2R)-2-phenylcyclopropyl) pyrrolidine-3,4-dicarboxamide], for which the figures for the EC50 at TLR2 [1] and at TLR2 [2] were 0.351 to 1 µM and 0.0001 to 0.05 µM, respectively.
The corresponding values for `CCCCCCCCCC(=O)N[C@@H](Cn1cc(-c2ccc(C(=O)N3C[C@@H](C(=O)N[C@H]4C[C@@H]4c4ccccc4)[C@H](C(=O)N[C@H]4C[C@@H]4c4ccccc4)C3)cc2)nn1)C(=O)NCCCCCC` [Compound 213, (3S,4S)-1-(4-(1-((S)-2-decanamido-3-(hexylamino)-3-oxopropyl)-1H-1,2,3-triazol-4-yl)benzoyl)-N3,N4-bis((1S,2R)-2-phenylcyclopropyl)pyrrolidine-3,4-dicarboxamide] are 0.051 to 0.35 µM and 0.0001 to 0.05 µM.
As for `CCCCCCNC(=O)[C@H](Cn1cnc(-c2ccc(C(=O)N3C[C@@H](C(=O)N[C@H]4C[C@@H]4c4ccccc4)[C@H](C(=O)N[C@H]4C[C@@H]4c4ccccc4)C3)cc2)c1)NC(=O)CCCCCC` [Compound 214, (3S,4S)-1-(4-(1-((S)-2-heptanamido-3-(hexylamino)-3-oxopropyl)-1H-imidazol-4-yl)benzoyl)-N3,N4-bis((1S,2R)-2-phenylcyclopropyl)pyrrolidine-3,4-dicarboxamide], the figures for the EC50 on TLR2 [1] and at TLR2 [2] were 0.0001 to 0.05 µM and 0.051 to 0.35 µM, respectively.
The corresponding values for `CCCCCCCCCCCOC(=O)N[C@H]1CN(C(=O)c2ccc(C(=O)N3C[C@@H](C(=O)N[C@H]4C[C@@H]4c4ccccc4)[C@H](C(=O)N[C@H]4C[C@@H]4c4ccccc4)C3)cc2)C[C@@H]1OC` [Compound 215, undecyl ((3S,4S)-1-(4-((3S,4S)-3,4-bis(((1S,2R)-2-phenylcyclopropyl)carbamoyl)pyrrolidine-1-carbonyl)benzoyl)-4-methoxypyrrolidin-3-yl)carbamate] are over 1 µM and 0.051 to 0.35 µM.
In the case of `CCCCCCCCCCCCOC(=O)N[C@H]1CN(C(=O)c2ccc(C(=O)N3C[C@@H](C(=O)N[C@H]4C[C@@H]4c4ccccc4)[C@H](C(=O)N[C@H]4C[C@@H]4c4ccccc4)C3)cc2)C[C@@H]1OC` [Compound 216, dodecyl ((3S,4S)-1-(4-((3S,4S)-3,4-bis(((1S,2R)-2-phenylcyclopropyl)carbamoyl)pyrrolidine-1-carbonyl)benzoyl)-4-methoxypyrrolidin-3-yl)carbamate], the results for the EC50 at TLR2 [1] and on TLR2 [2] were over 1 µM and 0.0001 to 0.05 µM, respectively.
In the case of `CCCCCCCCCCCCCOC(=O)N[C@H]1CN(C(=O)c2ccc(C(=O)N3C[C@@H](C(=O)N[C@H]4C[C@@H]4c4ccccc4)[C@H](C(=O)N[C@H]4C[C@@H]4c4ccccc4)C3)cc2)C[C@@H]1OC` [Compound 217, tridecyl ((3S,4S)-1-(4-((3S,4S)-3,4-bis(((1S,2R)-2-phenylcyclopropyl)carbamoyl)pyrrolidine-1-carbonyl)benzoyl)-4-methoxypyrrolidin-3-yl)carbamate], the EC50 on TLR2 [1] was over 1 µM; on TLR2 [2], 0.0001 to 0.05 µM.

Source of the values: US11951094B2, “TLR2 modulator compounds, pharmaceutical compositions and uses thereof” (Axial Therapeutics, Inc., priority 2020, dated 2024).
